biological target: T1, CGRP receptor complex (Homo sapiens, UniProt O60894+Q16602); assay: determination of cell functional antagonism - cAMP determination; type: cell-based; conditions: not given
T1 construct: host or cells: SK-N-MC
Experimental: 1.Experimental principle A CGRP receptor complex was coupled with Gs in G protein, the combination of CGRP and CGRP receptor complex led to Gs activation, and cAMP (3',5'-cyclic adenosine monophosphate) was produced. 2.Experimental purpose The ability of the compound of the present invention to inhibit CGRP-stimulated cAMP formation in SK-N-MC cells was determined. 3.Experimental materials 3.1Experimental cell line: SK-N-MC (neuroepithelioma cells) from National Science and Technology Infrastructure - Biomedical Materials and Cell Resources. 3.2Reagents and consumables
4.Experimental steps • 4.1Cell preparation: The SK-N-MC cells were resuscitated and cultured in advance, and a cell confluence degree should be 70%-80% before use. • 4.2A sample dilution, a tested compound and α-CGRP (human) were prepared. • 4.3Cell seeding and drug effect: The SK-N-MC cells were digested, centrifuged, then resuspended with the sample dilution, and inoculated into a 384-well plate. Each well was added with the α-CGRP (human) and the tested compound respectively, and blown and mixed evenly. The well plate was adhered with a sealing film, and placed on an enzyme-labeled incubator to incubate at 25°C. • 4.4cAMP determination: carried out according to LANCE Ultra cAMP Kit specification Eu-cAMP tracer and ULight-anti-cAMP working solutions were prepared in the dark, respectively added into the well plate, and blown and mixed evenly.

T1 sequence (Q16602 23-461): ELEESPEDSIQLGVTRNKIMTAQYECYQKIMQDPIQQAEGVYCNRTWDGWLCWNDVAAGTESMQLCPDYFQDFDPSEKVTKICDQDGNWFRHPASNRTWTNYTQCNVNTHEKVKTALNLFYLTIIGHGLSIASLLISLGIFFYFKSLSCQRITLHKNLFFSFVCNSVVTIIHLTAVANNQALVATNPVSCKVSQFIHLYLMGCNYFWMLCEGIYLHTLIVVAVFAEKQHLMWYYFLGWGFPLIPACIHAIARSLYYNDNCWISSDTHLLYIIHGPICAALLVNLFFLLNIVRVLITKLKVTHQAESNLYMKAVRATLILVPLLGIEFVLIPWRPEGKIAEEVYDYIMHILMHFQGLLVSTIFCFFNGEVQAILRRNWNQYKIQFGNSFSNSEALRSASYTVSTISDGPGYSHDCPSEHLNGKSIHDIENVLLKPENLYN
T1 sequence (O60894 27-148): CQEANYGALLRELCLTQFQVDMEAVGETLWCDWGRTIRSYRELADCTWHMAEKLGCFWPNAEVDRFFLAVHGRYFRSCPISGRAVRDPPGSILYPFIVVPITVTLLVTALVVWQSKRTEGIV

Row | SMILES | IC50 [pM]
1 | Cc1cc(C[C@@H](NC(=O)N2CCC(c3cc4c([nH]c3=O)SCC3CC43)CC2)C(=O)N2CCN(C3CCN(C)CC3)CC2)cc2cn[nH]c12 (stereo partly drawn) [Example 47, N-((R)-3-(7-methyl-1H-indazole-5-yl)-1-(4-(1-methylpiperidine-4-yl)piperazine-1-yl)-1-oxopropan-2-yl)-4-(5-oxo-1,1a,2,4,5,7b-hexahydrocyclopropo[4,5]thiopyrano[2,3-b]pyridine-6-yl)piperidine-1-formamide] | 240
2 | Cc1cc(C[C@@H](NC(=O)N2CCC(c3cc4c([nH]c3=O)CCC4)CC2)C(=O)N2CCN(C3CCN(C)CC3)CC2)cc2cn[nH]c12 [Example 51, (R)-N-(3-(7-methyl-1H-indazole-5-yl)-1-(4-(1-methylpiperidine-4-yl)piperazine-1-yl)-1-oxopropan-2-yl)-4-(2-oxo-2,5,6,7-tetrahydro-1H-cyclopentadieno[b]pyridine-3-yl)piperidine-1-f ormamide] | 1940

same assay, conditions: inhibition of CGRP-stimulated cAMP formation in SK-N-MC cells; read-out: IC50

Row | IC50 [pM] | SMILES
3 | 150 | Cc1cc(C[C@@H](NC(=O)N2CCC(c3cc4c([nH]c3=O)SCC3(CC3)C4)CC2)C(=O)N2CCN(C3CCN(C)CC3)CC2)cc2cn[nH]c12 [Example 46, (R)-N-(3-(7-methyl-1H-indazole-5-yl)-1-(4-(1-methylpiperidine-4-yl)piperazine-1-yl)-1-oxopropan-2-yl)-4-(7'-oxo-7',8'-dihydro-2'H,4'H-spiro[cyclopropane-1,3'-thiopyrano[2,3-b]pyridine]-6'-yl)piperidine-1-formamide]
4 | 140 | Cc1cc(C[C@@H](NC(=O)N2CCC(c3cc4c([nH]c3=O)SCCC4)CC2)C(=O)N2CCN(C3CCNCC3)CC2)cc2cn[nH]c12 [Example 49, (R)-N-(3-(7-methyl-1H-indazole-5-yl)-1-oxo-1-(4-(piperidine-4-yl)piperazine-1-yl)propan-2-yl)-4-(7-oxo-3,4,7,8-tetrahydro-2H-thiopyrano[2,3-b]pyridine-6-yl)piperidine-1-formamide]
5 | 70 | Cc1cc(C[C@@H](NC(=O)N2CCC(c3cc4c([nH]c3=O)SCC4)CC2)C(=O)N2CCN(C3CCNCC3)CC2)cc2cn[nH]c12 [Example 50, (R)-N-(3-(7-methyl-1H-indazole-5-yl)-1-oxo-1-(4-(piperidine-4-yl)piperazine-1-yl)propan-2-yl)-4-(6-oxo-2,3,6,7-tetrahydrothieno[2,3-b]pyridine-5-yl)piperidine-1-formamide]
6 | 1040 | Cc1cc(C[C@@H](NC(=O)N2CCC(c3cc4c([nH]c3=O)CCCC4)CC2)C(=O)N2CCN(C3CCN(C)CC3)CC2)cc2cn[nH]c12 [Example 52, (R)-N-(3-(7-methyl-1H-indazole-5-yl)-1-(4-(1-methylpiperidine-4-yl)piperazine-1-yl)-1-oxopropan-2-yl)-4-(2-oxo-1,2,5,6,7,8-hexahydroquinoline-3-yl)piperidine-1-formamide]
